Source: ChEMBL document CHEMBL3259563, “The discovery of potent and selective non-steroidal glucocorticoid receptor modulators, suitable for inhalation” (Bioorg Med Chem Lett, 2014)
In brackets after ≈: the same amount, converted by molar mass.

Key:
[1] = target: T1, Glucocorticoid receptor (Rattus norvegicus, UniProt P06536); test: Agonist activity at glucocorticoid receptor in rat PBMC assessed as inhibition of LPS-stimulated TNF-alpha release
T1 sequence (P06536 whole entry): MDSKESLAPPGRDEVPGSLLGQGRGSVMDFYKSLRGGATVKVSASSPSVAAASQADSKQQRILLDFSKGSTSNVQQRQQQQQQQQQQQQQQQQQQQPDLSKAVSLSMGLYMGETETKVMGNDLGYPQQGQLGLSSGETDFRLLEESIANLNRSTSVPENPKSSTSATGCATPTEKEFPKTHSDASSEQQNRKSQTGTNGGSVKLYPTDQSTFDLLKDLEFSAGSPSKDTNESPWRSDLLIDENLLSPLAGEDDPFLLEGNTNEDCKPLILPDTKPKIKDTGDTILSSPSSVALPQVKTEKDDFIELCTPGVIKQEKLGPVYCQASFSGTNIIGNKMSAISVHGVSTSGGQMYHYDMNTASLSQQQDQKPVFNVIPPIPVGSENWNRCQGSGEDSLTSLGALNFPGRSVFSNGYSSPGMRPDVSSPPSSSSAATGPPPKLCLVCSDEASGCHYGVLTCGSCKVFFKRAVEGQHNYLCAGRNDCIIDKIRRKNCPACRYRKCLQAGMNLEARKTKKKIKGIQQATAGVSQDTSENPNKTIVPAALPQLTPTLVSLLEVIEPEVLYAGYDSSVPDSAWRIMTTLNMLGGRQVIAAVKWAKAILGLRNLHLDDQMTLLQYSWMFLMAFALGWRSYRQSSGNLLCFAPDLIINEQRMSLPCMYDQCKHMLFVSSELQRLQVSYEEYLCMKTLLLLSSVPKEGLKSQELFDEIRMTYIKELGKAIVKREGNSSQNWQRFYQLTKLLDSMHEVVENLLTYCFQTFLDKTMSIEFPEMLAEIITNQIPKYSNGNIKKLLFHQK

[2] = Intrinsic clearance in human microsomes; format: ADME, Microsome
[3] = system: Hepatocyte; test: Intrinsic clearance in rat hepatocytes; format: ADME, cell-based
[4] = Clearance in iv dosed rat; format: ADME, organism-based; settings: in vivo
[5] = system: Hepatocyte; test: Intrinsic clearance in human hepatocytes; format: ADME, cell-based
[6] = target: T2, Progesterone receptor (Homo sapiens, UniProt P06401); test: Binding affinity to progesterone receptor (unknown origin)
T2 sequence (P06401 whole entry): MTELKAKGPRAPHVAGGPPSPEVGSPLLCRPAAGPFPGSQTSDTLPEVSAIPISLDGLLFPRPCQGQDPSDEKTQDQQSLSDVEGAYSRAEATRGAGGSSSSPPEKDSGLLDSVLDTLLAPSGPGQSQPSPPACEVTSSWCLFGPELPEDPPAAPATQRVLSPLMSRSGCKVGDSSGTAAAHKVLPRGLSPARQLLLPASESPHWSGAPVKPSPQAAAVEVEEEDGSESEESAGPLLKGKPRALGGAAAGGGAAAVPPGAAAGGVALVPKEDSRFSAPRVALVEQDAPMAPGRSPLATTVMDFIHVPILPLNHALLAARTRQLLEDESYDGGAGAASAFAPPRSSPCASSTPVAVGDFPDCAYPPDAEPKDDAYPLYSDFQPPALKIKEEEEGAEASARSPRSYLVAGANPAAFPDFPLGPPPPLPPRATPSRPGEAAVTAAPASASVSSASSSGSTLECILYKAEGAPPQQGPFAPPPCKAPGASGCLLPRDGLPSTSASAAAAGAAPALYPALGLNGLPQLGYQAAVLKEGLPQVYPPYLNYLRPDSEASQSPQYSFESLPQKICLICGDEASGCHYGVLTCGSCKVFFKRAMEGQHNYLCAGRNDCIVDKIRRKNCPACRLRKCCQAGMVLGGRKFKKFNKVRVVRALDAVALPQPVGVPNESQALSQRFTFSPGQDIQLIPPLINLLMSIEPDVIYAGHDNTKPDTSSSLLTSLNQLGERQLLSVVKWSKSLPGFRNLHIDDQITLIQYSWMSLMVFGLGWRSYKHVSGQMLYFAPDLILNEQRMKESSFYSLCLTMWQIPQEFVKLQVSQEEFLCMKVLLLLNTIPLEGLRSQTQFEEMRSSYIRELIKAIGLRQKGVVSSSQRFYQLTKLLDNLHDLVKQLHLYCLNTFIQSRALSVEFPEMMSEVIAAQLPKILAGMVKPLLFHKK

[7] = Thermodynamic solubility of the amorphous compound in 0.1 M phosphate buffer at pH 7.4 at 25 degC after 24 hrs; format: physicochemical; settings: read-out: Therm_solubility
[8] = target: T3, Glucocorticoid receptor (Homo sapiens, UniProt P04150)
T3 sequence (P04150 whole entry): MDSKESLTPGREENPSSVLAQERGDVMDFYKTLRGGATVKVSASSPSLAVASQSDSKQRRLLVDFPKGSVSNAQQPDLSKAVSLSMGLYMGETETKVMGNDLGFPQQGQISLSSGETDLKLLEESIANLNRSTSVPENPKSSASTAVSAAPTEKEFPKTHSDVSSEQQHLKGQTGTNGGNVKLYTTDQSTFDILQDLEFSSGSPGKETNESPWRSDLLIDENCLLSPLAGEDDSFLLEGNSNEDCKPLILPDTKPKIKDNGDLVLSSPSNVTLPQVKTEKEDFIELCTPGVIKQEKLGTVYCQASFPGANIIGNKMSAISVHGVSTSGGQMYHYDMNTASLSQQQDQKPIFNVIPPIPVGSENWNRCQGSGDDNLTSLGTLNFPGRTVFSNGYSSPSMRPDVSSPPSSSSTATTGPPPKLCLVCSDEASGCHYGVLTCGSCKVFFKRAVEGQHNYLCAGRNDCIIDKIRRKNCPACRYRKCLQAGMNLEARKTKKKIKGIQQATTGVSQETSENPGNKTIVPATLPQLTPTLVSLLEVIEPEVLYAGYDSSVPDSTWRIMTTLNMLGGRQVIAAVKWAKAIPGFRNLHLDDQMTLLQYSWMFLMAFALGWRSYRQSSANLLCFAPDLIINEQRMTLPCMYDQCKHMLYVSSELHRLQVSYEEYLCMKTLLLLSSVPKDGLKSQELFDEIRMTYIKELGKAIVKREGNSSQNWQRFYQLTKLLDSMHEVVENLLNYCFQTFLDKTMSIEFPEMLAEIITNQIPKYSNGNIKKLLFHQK
Description: Agonist activity at glucocorticoid receptor in human PBMC assessed as inhibition of LPS-stimulated TNF-alpha release

[9] = target: Cytochrome P450 2C9 (Homo sapiens, UniProt P11712); test: Inhibition of CYP2C9 (unknown origin); format: ADME
Cytochrome P450 2C9, sequence (P11712 whole entry): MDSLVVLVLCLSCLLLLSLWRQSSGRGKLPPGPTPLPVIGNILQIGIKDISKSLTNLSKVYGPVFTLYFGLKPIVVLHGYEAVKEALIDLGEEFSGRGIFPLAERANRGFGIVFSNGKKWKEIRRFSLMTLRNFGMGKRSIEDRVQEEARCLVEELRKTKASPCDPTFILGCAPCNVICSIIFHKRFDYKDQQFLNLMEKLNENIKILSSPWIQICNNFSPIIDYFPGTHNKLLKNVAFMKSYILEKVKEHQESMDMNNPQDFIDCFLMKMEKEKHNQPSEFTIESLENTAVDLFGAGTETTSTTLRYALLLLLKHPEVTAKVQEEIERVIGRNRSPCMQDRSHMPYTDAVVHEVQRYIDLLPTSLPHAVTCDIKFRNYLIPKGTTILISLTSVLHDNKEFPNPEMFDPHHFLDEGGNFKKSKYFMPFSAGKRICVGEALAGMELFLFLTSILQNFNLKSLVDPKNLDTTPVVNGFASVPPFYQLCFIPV

For `Cc1nn(C2CCCC2)c(C)c1S(=O)(=O)N[C@@H](C)CNc1cccc2c1cnn2-c1ccc(F)nc1`, the IC50 [1] was 4.5 nM, the microsomal CLint [2] was > 200 µL/min/mg and the CLH [3] was 33 µL/min. It also gave a clearance [4] of 78 mL/min/kg, a CLH [5] of 47 µL/min and an IC50 [6] of 4500 nM. The solubility thermodynamic at 24 h [7] was 22 µM (≈ 11.3 µg/mL), the IC50 [8] was 14 nM and the IC50 [9] was 17000 nM.
